Data on two compounds can be found in publication PMC5862592, “CDK8/19 inhibition induces premature G1/S transition and ATR-dependent cell death in prostate cancer cells” (Oncotarget, 2018).

What all share (assay): biochemical
What all share (parameters): KINOMEscan active site-directed competition binding assay (DiscoveRx), 456 kinases, per cent of control at 300 nM
Common to all, as to conditions: read-out: Percent of Control (%)

One assay concerns the target PLK2 (Homo sapiens, UniProt Q9NYY3). The procedure, abridged: (§1)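 Binding was measured with an active site-directed competition binding assay that quantifies compound–kinase interactions. Test compounds were screened at 300 nmol/L across a 456-kinase panel.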
In another assay the target is FER (Homo sapiens, UniProt P16591). The essentials: as §1
Another assay concerns the target FLT3(R834Q) (Homo sapiens, UniProt P36888, R834Q). The essentials: as §1
For a further assay, the target named is SRPK1 (Homo sapiens, UniProt Q96SB4). The procedure, abridged: as §1
Assay [1] concerns the target T1, ABL1(Y253F)-phosphorylated (Homo sapiens, UniProt P00519, Y253F).
T1 construct: phosphorylated
The essentials: as §1

A further assay concerns the target NLK (Homo sapiens, UniProt Q9UBE8). The procedure, abridged: as §1
In a further assay the target is TNK2 (Homo sapiens, UniProt Q07912). The procedure, abridged:
as §1

A further assay deals with T2, NIM1 (Homo sapiens, UniProt Q8IY84).
T2 construct: gene NIM1K
The procedure, abridged: as §1

In another assay the target is CLK2 (Homo sapiens, UniProt P49760). The essentials:
as §1

The next assay concerns the target BTK (Homo sapiens, UniProt Q06187). The procedure, abridged: as §1
A further assay deals with T3, p38-beta (Homo sapiens, UniProt Q15759).
T3 construct: gene MAPK11
The procedure, abridged: as §1

In a further assay the target is AKT3 (Homo sapiens, UniProt Q9Y243). The essentials: as §1
The target of a further assay is T4, ASK1 (Homo sapiens, UniProt Q99683).
T4 construct: gene MAP3K5
The essentials: as §1

A further assay deals with WEE2 (Homo sapiens, UniProt P0C1S8). The essentials: as §1
The next assay addresses T5, ICK (Homo sapiens, UniProt Q9UPZ9).
T5 construct: gene CILK1
The essentials:
as §1

A further assay addresses CAMK2G (Homo sapiens, UniProt Q13555). The procedure, abridged:
as §1

The next assay addresses EPHB6 (Homo sapiens, UniProt O15197). The procedure, abridged: as §1
In a further assay the target is EGFR(L861Q) (Homo sapiens, UniProt P00533, L861Q). The procedure, abridged:
as §1

The target of the next assay is CSNK2A1 (Homo sapiens, UniProt P68400). The essentials: as §1
The next assay concerns the target T6, OSR1 (Homo sapiens, UniProt O95747).
T6 construct: gene OXSR1
The essentials: as §1

The target in the next assay is PIP5K1C (Homo sapiens, UniProt O60331). The essentials: as §1
The target in the next assay is T7, DCAMKL3 (Homo sapiens, UniProt Q9C098).
T7 construct: gene DCLK3
The essentials:
as §1

Like-named read-outs stand apart in the source and are kept apart here.

SRPK1, sequence (Q96SB4 whole entry): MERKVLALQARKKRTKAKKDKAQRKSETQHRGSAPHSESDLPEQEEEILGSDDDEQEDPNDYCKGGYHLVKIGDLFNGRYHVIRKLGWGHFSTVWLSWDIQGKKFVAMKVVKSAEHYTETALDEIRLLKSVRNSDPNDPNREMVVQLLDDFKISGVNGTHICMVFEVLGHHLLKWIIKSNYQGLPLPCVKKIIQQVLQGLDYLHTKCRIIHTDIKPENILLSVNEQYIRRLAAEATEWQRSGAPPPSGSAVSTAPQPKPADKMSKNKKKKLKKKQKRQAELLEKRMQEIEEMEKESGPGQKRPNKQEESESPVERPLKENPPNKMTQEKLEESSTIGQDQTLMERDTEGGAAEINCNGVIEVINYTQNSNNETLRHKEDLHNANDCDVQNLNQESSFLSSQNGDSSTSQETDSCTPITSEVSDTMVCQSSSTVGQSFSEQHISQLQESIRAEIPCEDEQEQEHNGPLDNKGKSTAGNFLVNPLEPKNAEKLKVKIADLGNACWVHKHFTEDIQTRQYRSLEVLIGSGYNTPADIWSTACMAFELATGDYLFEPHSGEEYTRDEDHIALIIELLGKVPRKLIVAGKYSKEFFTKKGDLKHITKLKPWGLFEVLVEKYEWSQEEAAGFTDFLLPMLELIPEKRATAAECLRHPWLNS
CSNK2A1, sequence (P68400 whole entry): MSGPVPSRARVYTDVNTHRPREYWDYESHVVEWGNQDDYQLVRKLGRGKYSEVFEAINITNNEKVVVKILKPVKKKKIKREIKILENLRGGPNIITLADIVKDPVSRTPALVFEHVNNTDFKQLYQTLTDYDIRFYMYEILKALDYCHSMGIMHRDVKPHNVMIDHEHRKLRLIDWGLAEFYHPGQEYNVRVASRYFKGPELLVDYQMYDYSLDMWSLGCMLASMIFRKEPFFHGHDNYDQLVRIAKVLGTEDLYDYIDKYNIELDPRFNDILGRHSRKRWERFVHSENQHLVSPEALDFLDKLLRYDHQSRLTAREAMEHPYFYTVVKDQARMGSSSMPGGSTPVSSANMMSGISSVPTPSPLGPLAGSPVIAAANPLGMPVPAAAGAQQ
T3 sequence (Q15759 whole entry): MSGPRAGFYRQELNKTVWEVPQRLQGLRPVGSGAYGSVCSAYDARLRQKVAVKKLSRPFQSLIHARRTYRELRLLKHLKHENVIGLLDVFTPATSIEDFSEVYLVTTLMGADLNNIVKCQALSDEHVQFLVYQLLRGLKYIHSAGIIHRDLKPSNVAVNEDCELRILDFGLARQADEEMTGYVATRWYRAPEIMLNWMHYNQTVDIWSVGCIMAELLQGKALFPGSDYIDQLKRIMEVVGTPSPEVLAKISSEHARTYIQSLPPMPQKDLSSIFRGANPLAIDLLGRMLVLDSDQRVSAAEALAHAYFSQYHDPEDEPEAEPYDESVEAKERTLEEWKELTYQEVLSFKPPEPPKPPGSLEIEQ
T6 sequence (O95747 whole entry): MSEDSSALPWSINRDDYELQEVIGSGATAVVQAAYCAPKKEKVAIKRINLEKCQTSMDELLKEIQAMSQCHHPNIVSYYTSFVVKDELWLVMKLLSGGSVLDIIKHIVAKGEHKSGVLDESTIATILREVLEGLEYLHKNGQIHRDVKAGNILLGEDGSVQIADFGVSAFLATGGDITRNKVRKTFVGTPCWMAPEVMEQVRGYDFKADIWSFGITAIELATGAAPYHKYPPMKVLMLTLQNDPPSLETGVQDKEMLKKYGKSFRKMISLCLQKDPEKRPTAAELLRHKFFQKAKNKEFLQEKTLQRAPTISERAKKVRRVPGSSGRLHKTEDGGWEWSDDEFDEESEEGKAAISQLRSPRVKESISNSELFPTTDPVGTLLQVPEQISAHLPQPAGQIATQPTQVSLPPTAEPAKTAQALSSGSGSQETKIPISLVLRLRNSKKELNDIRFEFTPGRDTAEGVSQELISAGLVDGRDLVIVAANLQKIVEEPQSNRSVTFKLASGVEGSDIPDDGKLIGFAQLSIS
AKT3, sequence (Q9Y243 whole entry): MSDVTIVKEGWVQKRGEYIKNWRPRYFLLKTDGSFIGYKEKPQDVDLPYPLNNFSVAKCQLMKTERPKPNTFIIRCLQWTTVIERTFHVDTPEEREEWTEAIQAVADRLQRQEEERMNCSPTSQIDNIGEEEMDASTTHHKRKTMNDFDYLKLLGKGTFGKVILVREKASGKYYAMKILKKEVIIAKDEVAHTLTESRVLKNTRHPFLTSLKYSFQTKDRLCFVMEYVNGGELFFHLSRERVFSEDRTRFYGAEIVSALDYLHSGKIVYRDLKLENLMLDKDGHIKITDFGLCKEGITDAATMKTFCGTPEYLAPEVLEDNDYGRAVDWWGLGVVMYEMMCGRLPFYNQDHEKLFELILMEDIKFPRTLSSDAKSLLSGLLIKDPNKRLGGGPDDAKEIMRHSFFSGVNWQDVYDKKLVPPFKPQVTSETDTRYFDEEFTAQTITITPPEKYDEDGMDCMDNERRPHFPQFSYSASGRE
T2 sequence (Q8IY84 whole entry): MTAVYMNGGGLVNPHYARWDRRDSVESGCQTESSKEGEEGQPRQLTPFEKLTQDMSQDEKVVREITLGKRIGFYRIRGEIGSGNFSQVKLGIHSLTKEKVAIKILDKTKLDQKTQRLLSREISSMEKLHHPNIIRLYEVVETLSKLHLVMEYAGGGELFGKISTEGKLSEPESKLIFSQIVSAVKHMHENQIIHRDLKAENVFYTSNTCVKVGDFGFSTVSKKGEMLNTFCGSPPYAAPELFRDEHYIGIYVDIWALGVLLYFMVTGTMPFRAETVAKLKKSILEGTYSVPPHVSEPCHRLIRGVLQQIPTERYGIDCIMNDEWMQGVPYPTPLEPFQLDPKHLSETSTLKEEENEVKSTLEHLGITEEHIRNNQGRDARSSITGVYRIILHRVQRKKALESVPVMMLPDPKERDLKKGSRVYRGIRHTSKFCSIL
TNK2, sequence (Q07912 whole entry): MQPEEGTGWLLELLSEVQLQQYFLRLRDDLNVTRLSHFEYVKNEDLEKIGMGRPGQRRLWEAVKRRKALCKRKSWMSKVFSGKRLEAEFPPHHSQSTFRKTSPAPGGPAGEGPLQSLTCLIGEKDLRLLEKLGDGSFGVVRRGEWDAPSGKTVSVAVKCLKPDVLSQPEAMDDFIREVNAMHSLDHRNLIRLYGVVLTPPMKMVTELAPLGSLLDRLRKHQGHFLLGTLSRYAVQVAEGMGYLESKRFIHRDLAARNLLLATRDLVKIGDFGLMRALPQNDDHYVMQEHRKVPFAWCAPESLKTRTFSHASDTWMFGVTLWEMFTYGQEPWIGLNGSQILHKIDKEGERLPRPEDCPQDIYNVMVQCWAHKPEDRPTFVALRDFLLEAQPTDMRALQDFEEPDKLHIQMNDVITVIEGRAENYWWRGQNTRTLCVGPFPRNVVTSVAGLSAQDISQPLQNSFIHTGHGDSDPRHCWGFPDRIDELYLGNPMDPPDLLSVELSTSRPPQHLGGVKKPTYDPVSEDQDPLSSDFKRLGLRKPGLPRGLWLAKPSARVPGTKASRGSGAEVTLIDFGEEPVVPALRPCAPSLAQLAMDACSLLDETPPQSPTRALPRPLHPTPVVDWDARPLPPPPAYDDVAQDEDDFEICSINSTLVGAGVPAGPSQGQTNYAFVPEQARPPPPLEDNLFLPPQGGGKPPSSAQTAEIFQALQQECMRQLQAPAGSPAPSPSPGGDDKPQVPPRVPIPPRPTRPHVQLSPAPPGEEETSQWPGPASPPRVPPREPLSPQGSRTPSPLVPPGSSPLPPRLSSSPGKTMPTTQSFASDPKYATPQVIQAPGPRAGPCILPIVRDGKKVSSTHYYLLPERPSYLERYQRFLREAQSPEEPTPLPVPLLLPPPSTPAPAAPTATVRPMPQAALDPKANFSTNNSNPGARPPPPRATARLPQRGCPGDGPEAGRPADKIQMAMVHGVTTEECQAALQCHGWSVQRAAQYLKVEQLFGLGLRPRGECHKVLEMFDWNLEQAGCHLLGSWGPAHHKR
FER, sequence (P16591 whole entry): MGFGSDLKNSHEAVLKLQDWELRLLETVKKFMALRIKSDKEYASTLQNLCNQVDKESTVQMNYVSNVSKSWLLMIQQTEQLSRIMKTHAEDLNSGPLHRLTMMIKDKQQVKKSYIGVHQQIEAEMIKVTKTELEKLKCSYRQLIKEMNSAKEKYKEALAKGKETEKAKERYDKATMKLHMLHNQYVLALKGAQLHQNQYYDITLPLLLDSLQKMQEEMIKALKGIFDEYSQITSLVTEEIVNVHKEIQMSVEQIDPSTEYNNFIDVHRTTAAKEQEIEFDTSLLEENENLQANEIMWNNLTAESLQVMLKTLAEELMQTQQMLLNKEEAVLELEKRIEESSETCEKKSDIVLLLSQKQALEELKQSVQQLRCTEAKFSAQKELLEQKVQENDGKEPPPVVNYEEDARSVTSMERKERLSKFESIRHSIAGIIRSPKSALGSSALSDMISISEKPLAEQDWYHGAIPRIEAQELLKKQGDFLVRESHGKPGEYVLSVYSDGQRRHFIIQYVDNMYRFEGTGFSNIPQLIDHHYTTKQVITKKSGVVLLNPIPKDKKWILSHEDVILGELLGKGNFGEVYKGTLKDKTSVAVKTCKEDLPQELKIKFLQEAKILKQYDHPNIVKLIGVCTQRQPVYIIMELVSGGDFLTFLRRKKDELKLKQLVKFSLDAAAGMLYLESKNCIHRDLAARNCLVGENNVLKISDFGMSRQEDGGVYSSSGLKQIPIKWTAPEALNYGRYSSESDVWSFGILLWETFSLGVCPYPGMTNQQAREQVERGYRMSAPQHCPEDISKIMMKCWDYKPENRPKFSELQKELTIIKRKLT

Regarding `Cc1ncccc1Oc1sc(C(N)=O)c2c1-c1c(cnn1C)CC2` [T-474, 1-methyl-8-((2-methylpyridin-3-yl)oxy)-4,5-dihydro-1H-thieno[3,4-g]indazole-6-carboxamide], the remaining binding at 0.3 µM at PLK2 was determined as 67%; on FER it was 90%; on FLT3(R834Q), 91%; at SRPK1, 100%; in assay [1], 100%; at NLK, 100%. The remaining binding at 0.3 µM on TNK2 is 100%; on NIM1, 63%; at CLK2, 46%; on BTK it was 81%; on p38-beta, 64%; at AKT3, 97%. The remaining binding at 0.3 µM at ASK1 came out at 81%; at WEE2 it was 100%; at ICK, 100%; on CAMK2G, 97%; on EPHB6 it was 86%; at EGFR(L861Q), 91%. The remaining binding at 0.3 µM on CSNK2A1 was 61%; on OSR1 it was 60%; on PIP5K1C, 100%; at DCAMKL3 it was 76%.

In the case of `O=C(/C=C/c1cnccc1-c1ccc(F)cc1)Nc1ccc(CCc2nnco2)cc1` [T-418, (2E)-3-(4-(4-fluorophenyl)pyridin-3-yl)-N-(4-(2-(1,3,4-oxadiazol-2-yl)ethyl)phenyl)acrylamide], the remaining binding at 0.3 µM at PLK2 (sheet T-418) was 57%; at FER (sheet T-418), 98%; at FLT3(R834Q) (sheet T-418), 88%; on SRPK1 (sheet T-418) it was 61%; in assay [1] (sheet T-418), 98%; at NLK (sheet T-418) it was 98%. The remaining binding at 0.3 µM was determined as 100% at TNK2 (sheet T-418); 100% on NIM1 (sheet T-418); 88% at CLK2 (sheet T-418); 79% at BTK (sheet T-418); 77% on p38-beta (sheet T-418); 100% on AKT3 (sheet T-418). Moreover, the remaining binding at 0.3 µM at ASK1 (sheet T-418) was 92%; on WEE2 (sheet T-418), 100%; at ICK (sheet T-418), 100%; at CAMK2G (sheet T-418), 94%; at EPHB6 (sheet T-418) it was 93%; at EGFR(L861Q) (sheet T-418), 86%. Moreover, the remaining binding at 0.3 µM stood at 84% at CSNK2A1 (sheet T-418), 53% at OSR1 (sheet T-418), 100% at PIP5K1C (sheet T-418) and 83% at DCAMKL3 (sheet T-418).
